# Test results from patent publication US7507760B2, “N-type calcium channel blockers” (Neuromed Pharmaceuticals Ltd., priority 2004, dated 2009).
# Where two headings read alike, the source gives them in different places.
# Assays:
# [1] = system: T-type over L-type channels; conditions: cited from earlier work
# [2] = target: T1, L-type channels (α1C+α2δ+β1b cDNA subunits) (Homo sapiens, UniProt Q13936); experiment: Selectivity for N-type over L-type channels, whole cell patch recordings in HEK 293 cells; type: cell-based
# T1 construct: expressed in transfected cells; host or cells: HEK 293 (human embryonic kidney cells)
# Description: (§1) Calcium channel blocking activity was measured using whole cell patch recordings on human embryonic kidney cells transiently expressing rat α1B+α2δ+β1b channels (N-type channels) with 5 mM barium as a charge carrier. Channel block was also measured in P/Q-type channels (α1A+α2δ+β1b cDNA subunits) and L-type channels (α1C+α2δ+β1b cDNA subunits).
# (§2) HEK 293 Host cells (ATCC# CRL 1573) were grown in standard DMEM medium supplemented with 2 mM glutamine and 10% fetal bovine serum. HEK 293 cells were transfected by a standard calcium-phosphate-DNA coprecipitation method using the rat α1B+β1b+α2δ N-type calcium channel subunits in a vertebrate expression vector (for example, see Current Protocols in Molecular Biology).
# (§3) After an incubation period of 24 to 72 hours, the culture medium was removed and replaced with external recording solution (see below). Whole cell patch clamp experiments were performed using an Axopatch 200B amplifier (Axon Instruments, Burlingame, Calif.) linked to an IBM compatible personal computer equipped with pCLAMP software. Borosilicate glass patch pipettes (Sutter Instrument Co., Novato, Calif.) were polished (Microforge, Narishige, Japan) to a resistance of about 4 MΩ when filled with cesium methanesulfonate internal solution (composition in MM: 109 CsCH3 SO4, 4 MgCl2, 9 EGTA, 9 HEPES, pH 7.2). Cells were bathed in 5 mM Ba^++ (in mM: 5 BaCl2, 1 MgCl2, 10 HEPES, 40 tetraethylammonium chloride, 10 glucose, 87.5 CsCl pH 7.2). Current data shown were elicited by a train of 100 ms test pulses at 0.066 Hz from −100 mV and/or −80 mV to various potentials (min. −20 mV, max. +30 mV). Drugs were perfused directly into the vicinity of the cells, using a microperfusion system.
# (§4) Normalized dose-response curves were fit (Sigmaplot 4.0, SPSS Inc., Chicago, Ill.) by the Hill equation to determine IC50 values. Steady-state inactivation curves were plotted as the normalized test pulse amplitude following 5 s inactivating prepulses at +10 mV increments. Inactivation curves were fit (Sigmaplot 4.0) with the Boltzman equation, Ipeak (normalized)=1/(1+exp((V-Vh)z/25.6)), where V and Vh are the conditioning and half inactivation potentials, respectively, and z is the slope factor.
# (§5) The same protocol was followed for cell lines expressing P/Q-type channels and L-type channels.
# [3] = target: T2, rat brain N-type calcium channel subunits (α1B+α2δ+β1b cDNA subunits) (Rattus norvegicus, UniProt Q02294); experiment: N-type calcium channel block, whole cell patch clamp in HEK 293 cells; type: cell-based; conditions: holding potential −80 mV to +10 mV, 5 mM BaCl2
# T2 construct: expressed in transfected cells; host or cells: HEK 293
# Description: as §4
# The methods of Example 11 were followed with slight modifications as will be apparent from the description below.
# N-type calcium channel blocking activity was assayed in human embryonic kidney cells, HEK 293, stably transfected with the rat brain N-type calcium channel subunits (α1B+α2δ+β1b cDNA subunits). Briefly, cells were cultured in Dulbecco's modified eagle medium (DMEM) supplemented with 10% fetal bovine serum, 200 U/ml penicillin and 0.2 mg/ml streptomycin at 37° C. with 5% CO2. At 85% confluency, cells were split with 0.25% trypsin/1 mM EDTA and plated at 10% confluency on glass coverslips. At 12 hours the medium was. replaced and the cells transfected using a standard calcium phosphate protocol and the appropriate calcium channel cDNAs. Fresh DMEM was supplied and the cells transferred to 28° C./5% CO2. Cells were incubated for 1 to 2 days to whole cell recording.
# Whole cell patch clamp experiments were performed using an Axopatch 200B amplifier (Axon Instruments, Burlingame, Calif.) linked to a personal computer equipped with pCLAMP software. The external and internal recording solutions contained, respectively, 5 mM BaCl2, 10 mM MgCl2, 10 mM HEPES, 40 mM TEACl, 10 mM glucose, 87.5 mM CsCl (pH 7.2) and 108 mM CsMS, 4 mM MgCl2, 9 mM EGTA, 9 mM HEPES (pH 7.2). Currents were typically elicited from a holding potential of −80 mV to +10 mV using Clampex software (Axon Instruments). Typically, currents were first elicited with low frequency stimulation (0.067 Hz) and allowed to stabilize prior to application of the compounds. The compounds were then applied during the low frequency pulse trains for two to three minutes to assess tonic block, and subsequently the pulse frequency was increased to 0.2 Hz to assess frequency dependent block. Data were analyzed using Clampfit (Axon Instruments) and SigmaPlot 4.0 (Jandel Scientific).
# [4] = system: rat formalin model (paw flinches); experiment: Formalin-induced pain model; type: in vivo; conditions: 30 mg/kg IP, 10 minutes prior to formalin, saline control=100%
# Description: […] The compounds were reconstituted to stock solutions of approximately 10 mg/ml in propylene glycol. Eight Holtsman male rats of 275-375 g size were randomly selected per test article.
# The following study groups in Table 6 were used, with test article, vehicle control (propylene glycol) and saline delivered intraperitoneally (IP):
# Prior to initiation of drug delivery, baseline behavioral and testing data were taken.
# On the morning of testing, a small metal band (0.5 g) was loosely placed around the right hind paw. The rat was placed in a cylindrical Plexiglas chamber for adaptation a minimum of 30 minutes. Test Article or Vehicle Control Article was administered 10 minutes prior to formalin injection (50 μl of 5% formalin) into the dorsal surface of the right hindpaw of the rat. The animal was then placed into the chamber of the automated formalin apparatus where movement of the formalin injected paw was monitored and the number of paw flinches tallied by minute over the next 60 minutes (Malmberg, A. B., supra).
# Results are presented as Maximum Possible Effect±SEM, where saline control=100% (Table 7)
# [5] = target: T3, human α1G T-type channels (Homo sapiens, UniProt O43497); experiment: Block of α1G T-type channels, whole-cell patch clamp in HEK cells; type: cell-based; conditions: test pulse −40 mV
# T3 construct: expressed in transfected cells
# Description: Standard patch-clamp techniques were employed to identify blockers of T-type currents. Briefly, previously described HEK cell lines stably expressing human α1G T-type channels were used for all the recordings (passage #: 4-20, 37° C., 5% CO2). To obtain T-type currents, plastic dishes containing semi-confluent cells were positioned on the stage of a ZEISS AXIOVERT S100 microscope after replacing the culture medium with external solution (Table 3). Whole-cell patches were obtained using pipettes (borosilicate glass with filament, O.D.: 1.5 mm, I.D.: 0.86 mm, 10 cm length), fabricated on a SUTTER P-97 puller with resistance values of ˜5 MΩ (Table 4 ).
# T-type currents were reliably obtained by using two voltage protocols: “non-inactivating”, and “inactivation”. In the non-inactivating protocol, the holding potential is set at −110 mV and with a pre-pulse at −100 mV for 1 second prior to the test pulse at −40 mV for 50 ms. In the inactivation protocol, the pre-pulse is at approximately −85 mV for 1 second, which inactivates about ^15% of the T-type channels.
# Test compounds were dissolved in external solution, 0.1-0.01% DMSO. After ˜10 min rest, they were applied by gravity close to the cell using a WPI microfil tubing. The “non-inactivated” pre-pulse was used to examine the resting block of a compound. The “inactivated” protocol was employed to study voltage-dependent block. However, the initial data shown below were mainly obtained using the non-inactivated protocol only. IC50 values are shown for various compounds of the invention in Table 5.
# [6] = target: T4, P/Q-type channels (α1A+α2δ+β1b cDNA subunits) (Homo sapiens, UniProt O00555); experiment: Selectivity for N-type over P/Q-type channels, whole cell patch recordings in HEK 293 cells; type: cell-based
# T4 construct: expressed in transfected cells; host or cells: HEK 293 (human embryonic kidney cells)
# Description: as §1, §2, §3, §4, §5
# [7] = frequency dependent block, pulse frequency 0.2 Hz, read-out: IC50 at 0.2 Hz
# [8] = tonic block, low frequency stimulation 0.067 Hz, read-out: IC50 at 0.067 Hz
# [9] = −80 mV (inactivation protocol), read-out: IC50 at −80 mV
# [10] = −100 mV (non-inactivating protocol), read-out: IC50 at −100 mV
# T1 sequence (Q13936 whole entry): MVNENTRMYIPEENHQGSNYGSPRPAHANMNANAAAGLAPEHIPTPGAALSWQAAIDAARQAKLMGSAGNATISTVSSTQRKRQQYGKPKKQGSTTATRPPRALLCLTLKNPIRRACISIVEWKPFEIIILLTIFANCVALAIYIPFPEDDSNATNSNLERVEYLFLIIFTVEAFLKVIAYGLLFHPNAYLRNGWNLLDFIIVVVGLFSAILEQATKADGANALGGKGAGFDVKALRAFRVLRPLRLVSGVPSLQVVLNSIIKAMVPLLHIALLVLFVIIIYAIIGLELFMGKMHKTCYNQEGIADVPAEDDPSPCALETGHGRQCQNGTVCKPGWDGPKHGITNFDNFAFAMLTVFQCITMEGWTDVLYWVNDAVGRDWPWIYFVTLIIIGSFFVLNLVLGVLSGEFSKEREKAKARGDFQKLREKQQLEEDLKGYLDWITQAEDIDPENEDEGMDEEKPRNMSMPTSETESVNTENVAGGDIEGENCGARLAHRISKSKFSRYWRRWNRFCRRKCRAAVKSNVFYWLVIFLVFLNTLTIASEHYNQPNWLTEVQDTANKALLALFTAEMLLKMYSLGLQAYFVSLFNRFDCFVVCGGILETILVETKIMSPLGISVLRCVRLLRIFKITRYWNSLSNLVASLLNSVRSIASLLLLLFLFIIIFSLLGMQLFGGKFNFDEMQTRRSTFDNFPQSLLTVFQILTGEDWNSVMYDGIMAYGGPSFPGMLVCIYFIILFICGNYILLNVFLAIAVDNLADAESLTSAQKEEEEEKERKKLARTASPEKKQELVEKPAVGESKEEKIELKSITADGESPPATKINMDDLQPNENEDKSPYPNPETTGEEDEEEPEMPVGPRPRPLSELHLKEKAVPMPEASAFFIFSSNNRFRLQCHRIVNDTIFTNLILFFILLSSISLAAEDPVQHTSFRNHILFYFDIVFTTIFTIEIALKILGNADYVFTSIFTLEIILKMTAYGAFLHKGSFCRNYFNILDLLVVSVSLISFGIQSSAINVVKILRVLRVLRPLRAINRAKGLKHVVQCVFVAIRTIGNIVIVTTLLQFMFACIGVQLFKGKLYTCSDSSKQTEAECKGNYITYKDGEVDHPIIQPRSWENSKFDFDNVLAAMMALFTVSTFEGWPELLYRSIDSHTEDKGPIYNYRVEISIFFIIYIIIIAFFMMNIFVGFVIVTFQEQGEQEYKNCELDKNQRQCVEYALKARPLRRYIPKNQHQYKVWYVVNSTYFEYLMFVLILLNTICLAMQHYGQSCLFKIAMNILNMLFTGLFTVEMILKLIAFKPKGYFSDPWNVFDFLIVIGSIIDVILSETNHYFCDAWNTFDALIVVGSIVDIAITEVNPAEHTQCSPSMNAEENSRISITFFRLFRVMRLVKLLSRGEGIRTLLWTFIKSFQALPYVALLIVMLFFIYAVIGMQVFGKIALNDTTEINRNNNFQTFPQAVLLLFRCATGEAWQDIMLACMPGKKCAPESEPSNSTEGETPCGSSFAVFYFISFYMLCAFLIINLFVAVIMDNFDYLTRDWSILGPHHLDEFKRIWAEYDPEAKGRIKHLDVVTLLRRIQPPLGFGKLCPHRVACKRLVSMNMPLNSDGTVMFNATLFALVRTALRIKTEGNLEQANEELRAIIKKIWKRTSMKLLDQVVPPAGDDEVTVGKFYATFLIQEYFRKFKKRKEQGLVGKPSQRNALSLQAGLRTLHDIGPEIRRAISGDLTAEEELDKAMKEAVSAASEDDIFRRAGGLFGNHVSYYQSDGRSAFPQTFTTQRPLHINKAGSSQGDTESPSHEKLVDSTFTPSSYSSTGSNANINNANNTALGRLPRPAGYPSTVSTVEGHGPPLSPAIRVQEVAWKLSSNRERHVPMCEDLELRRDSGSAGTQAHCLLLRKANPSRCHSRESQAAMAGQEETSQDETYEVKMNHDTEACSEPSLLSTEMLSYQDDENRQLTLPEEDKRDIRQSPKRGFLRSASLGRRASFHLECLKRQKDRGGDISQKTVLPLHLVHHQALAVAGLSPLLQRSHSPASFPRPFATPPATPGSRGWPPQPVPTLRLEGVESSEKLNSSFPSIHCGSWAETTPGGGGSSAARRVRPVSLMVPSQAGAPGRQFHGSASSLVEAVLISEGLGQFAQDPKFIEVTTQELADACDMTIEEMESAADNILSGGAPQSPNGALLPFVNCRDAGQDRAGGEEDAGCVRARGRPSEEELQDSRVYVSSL
# T1 sequence (P54289 25-956 partner limits assumed): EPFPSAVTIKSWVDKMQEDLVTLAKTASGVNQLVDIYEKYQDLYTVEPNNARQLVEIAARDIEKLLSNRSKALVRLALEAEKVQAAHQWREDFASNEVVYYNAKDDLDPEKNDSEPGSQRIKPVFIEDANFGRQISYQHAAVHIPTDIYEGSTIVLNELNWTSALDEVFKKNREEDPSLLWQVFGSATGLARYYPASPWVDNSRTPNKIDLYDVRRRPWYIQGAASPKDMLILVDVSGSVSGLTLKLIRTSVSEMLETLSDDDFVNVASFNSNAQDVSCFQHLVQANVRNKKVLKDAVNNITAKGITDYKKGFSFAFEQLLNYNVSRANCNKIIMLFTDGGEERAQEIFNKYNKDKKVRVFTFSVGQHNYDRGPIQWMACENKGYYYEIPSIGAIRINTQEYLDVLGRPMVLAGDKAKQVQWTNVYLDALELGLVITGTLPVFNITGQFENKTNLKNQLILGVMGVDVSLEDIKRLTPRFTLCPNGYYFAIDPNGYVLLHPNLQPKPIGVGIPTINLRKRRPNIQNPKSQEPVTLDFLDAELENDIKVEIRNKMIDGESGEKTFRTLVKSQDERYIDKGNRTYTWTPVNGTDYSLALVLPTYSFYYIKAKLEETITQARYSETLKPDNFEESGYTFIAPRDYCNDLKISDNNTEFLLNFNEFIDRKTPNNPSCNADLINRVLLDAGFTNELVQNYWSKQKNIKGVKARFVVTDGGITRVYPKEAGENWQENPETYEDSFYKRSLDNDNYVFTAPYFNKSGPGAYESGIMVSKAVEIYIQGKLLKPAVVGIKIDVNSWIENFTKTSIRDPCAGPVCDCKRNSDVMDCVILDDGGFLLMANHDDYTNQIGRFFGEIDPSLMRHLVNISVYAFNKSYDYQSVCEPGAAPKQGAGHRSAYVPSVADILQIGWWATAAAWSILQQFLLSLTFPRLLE
# T1 sequence (P54289 957-1103 partner limits assumed): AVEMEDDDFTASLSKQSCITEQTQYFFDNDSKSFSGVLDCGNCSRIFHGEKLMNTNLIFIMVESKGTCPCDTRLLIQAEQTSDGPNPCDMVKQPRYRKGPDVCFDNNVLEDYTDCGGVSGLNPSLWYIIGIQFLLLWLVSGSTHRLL
# T1 sequence (Q02641 whole entry partner): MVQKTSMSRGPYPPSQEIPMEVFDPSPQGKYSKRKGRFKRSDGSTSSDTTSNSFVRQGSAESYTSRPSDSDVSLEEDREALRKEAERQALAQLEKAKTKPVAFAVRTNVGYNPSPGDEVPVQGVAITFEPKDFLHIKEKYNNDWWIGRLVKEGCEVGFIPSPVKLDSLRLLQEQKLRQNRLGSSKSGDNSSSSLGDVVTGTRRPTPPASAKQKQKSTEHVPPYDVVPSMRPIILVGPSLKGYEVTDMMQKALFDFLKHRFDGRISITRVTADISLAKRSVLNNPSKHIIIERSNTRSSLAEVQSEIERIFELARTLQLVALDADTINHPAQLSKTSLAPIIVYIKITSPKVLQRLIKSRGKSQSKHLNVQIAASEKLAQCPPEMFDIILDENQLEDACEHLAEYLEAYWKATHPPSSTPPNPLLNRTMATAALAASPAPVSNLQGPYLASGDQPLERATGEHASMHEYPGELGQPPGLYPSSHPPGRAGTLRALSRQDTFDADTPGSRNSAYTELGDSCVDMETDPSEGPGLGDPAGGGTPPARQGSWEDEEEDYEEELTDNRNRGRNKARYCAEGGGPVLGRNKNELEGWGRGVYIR
Molecule,selective for T-type over L-type channels [1],selectivity for N-type over L-type channels [2],"IC50 [3, 7]","IC50 [3, 8]","Maximum Possible Effect ± SEM, Phase I [4]","Maximum Possible Effect ± SEM, Phase II [4]","Maximum Possible Effect ± SEM, Phase IIA [4]","IC50 [5, 9]","IC50 [5, 10]",selectivity for N-type over P/Q-type channels [6]
COCC(=O)O[C@]1(CCN(C)CCCc2nc3ccccc3[nH]2)CCc2cc(F)ccc2[C@@H]1C(C)C [Mibefradil],10-30 fold,–,–,–,–,–,–,–,–,–
"(S)-6,6-Bis-(4-fluoro-phenyl)-hexanoic acid[1-(3,5-di-tert-butyl-4-methoxy-benzoyl)-pyrrolidin-3-yl]-methyl-amide [Compound P5]",–,greater than 2000 fold,29 nM,45 nM,88 ± 13%,62 ± 4%,47 ± 5%,13 nM,73 nM,approximately 31 fold
"(R)-6,6-Bis-(4-fluoro-phenyl)-hexanoic acid[1-(3,5-di-tert-butyl-4-methoxy-benzoyl)-pyrrolidin-3-yl]-methyl-amide [Compound P2]",–,greater than 1000 fold,32 nM,67 nM,70 ± 8%,82 ± 9%,71 ± 12%,51 nM,117 nM,approximately 9 fold
"COc1c(C(C)(C)C)cc(C(=O)N(C)[C@H]2CCN(C(=O)CCCCC(c3ccc(F)cc3)c3ccc(F)cc3)C2)cc1C(C)(C)C [Compound P4, (S)-N-{1-[6,6-Bis-(4-fluoro-phenyl)-hexanoyl]-pyrrolidin-3-yl}-3,5-di-tert-butyl-4-methoxy-N-methyl-benzamide]",–,greater than 5000 fold,62 nM,93 nM,50 ± 10%,51 ± 10%,42 ± 13%,390 nM,230 nM,approximately 12 fold
"COc1c(C(C)(C)C)cc(C(=O)N(C)[C@@H]2CCN(C(=O)CCCCC(c3ccc(F)cc3)c3ccc(F)cc3)C2)cc1C(C)(C)C [Compound P1, (R)—N-{1-[6,6-Bis-(4-fluoro-phenyl)-hexanoyl]-pyrrolidin-3-yl}-3,5-di-tert-butyl-4-methoxy-N-methyl-benzamide]",–,~75 fold,91 nM,120 nM,94 ± 11%,79 ± 14%,72 ± 16%,8 nM,–,approximately 23 fold
